# Assay results: US20230263822A1, “MODULATION OF FACTOR 11 EXPRESSION” (Ionis Pharmaceuticals, Inc., priority 2008, published 2023)
# Strand notation (5' to 3'): a small letter for the sugar, then the base; units joined by * are phosphorothioate-linked, units joined directly phosphodiester-linked; [ ] holds rarer units or linkages, { } end groups; capitals alone tell only the bases. e = 2'-O-(2-methoxyethyl) (MOE); [5mC] = 5-methylcytosine; d = 2'-deoxy (DNA)
# How the values were obtained:
# human Factor 11 mRNA [1] = assay: Dose-dependent inhibition of human Factor 11 in HepG2 cells, electroporation 0.7-20 uM (Example 4); type: cell-based; settings: for percent inhibition of Factor 11 at 0.7 μM / percent inhibition of Factor 11 at 2.2 μM / percent inhibition of Factor 11 at 6.7 μM / percent inhibition of Factor 11 at 20 μM: relative to untreated control cells
# How it was run: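 HepG2 cells electroporated with antisense gapmers at 0.7, 2.2, 6.7 and 20 μM, treated ~16 h. Factor 11 mRNA quantified by qRT-PCR (primer probe set RTS 2966), normalised to RIBOGREEN total RNA; expressed as percent inhibition versus untreated control cells.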
# human Factor 11 mRNA [2] = assay: Antisense inhibition of human Factor 11 in HepG2 cells by microwalk gapmers, lipofectin, 75 nM (Example 3); type: cell-based
# How it was run: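 HepG2 cells (10,000/well) were transfected via lipofectin with 75 nM 20-mer MOE gapmers (phosphorothioate, 5-methyl-C) for about 24 h. Factor 11 mRNA was measured by qRT-PCR, normalized to RIBOGREEN total RNA, and given as percent inhibition versus untreated cells.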
# human Factor 11 mRNA [3] = assay: Dose-dependent inhibition of human Factor 11 in HepG2 cells, lipofectin 9.375-75 nM (Example 4); type: cell-based; settings: for percent inhibition of Factor 11 at 9.375 nM / percent inhibition of Factor 11 at 18.75 nM / percent inhibition of Factor 11 at 37.5 nM / percent inhibition of Factor 11 at 75 nM: relative to untreated control cells
# How it was run: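 HepG2 cells transfected via lipofectin with antisense oligonucleotide at 9.375, 18.75, 37.5 or 75 nM for about 16 h. Factor 11 mRNA quantified by real-time RT-PCR (primer probe set RTS 2966) and normalized to total RNA (RIBOGREEN). Results expressed as percent inhibition versus untreated cells.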
# human Factor 11 mRNA [4] = assay: Dose-dependent antisense inhibition of human Factor 11 in HepG2 cells, lipofectin 9.375-150 nM (Example 2); type: cell-based; settings: ~16 h
# Protocol: Cells were plated at a density of 10,000 cells per well and transfected using lipofectin reagent with 9.375 nM, 18.75 nM, 37.5 nM, 75 nM, and 150 nM concentrations of antisense oligonucleotide, as specified in Table 3. After a treatment period of approximately 16 hours, RNA was isolated from the cells and Factor 11 mRNA levels were measured by quantitative real-time PCR. Human Factor 11 primer probe set RTS 2966 (forward sequence: […], incorporated herein as SEQ ID NO: 3; reverse sequence: […], incorporated herein as SEQ ID NO: 4; probe sequence: TTGTCTACTGAAGCACACCCAAACAGGGAX, incorporated herein as SEQ ID NO: 5) was used to measure mRNA levels. Factor 11 mRNA levels were adjusted according to total RNA content, as measured by RIBOGREEN. Results are presented as percent inhibition of Factor 11, relative to untreated control cells.
# human Factor 11 mRNA [5] = assay: Antisense inhibition of human Factor 11 in HepG2 cells, lipofectin, 75 nM (Example 1); type: cell-based; settings: 75 nM antisense oligonucleotide, ~24 h, relative to untreated control cells, gapmers targeted to SEQ ID NO: 1
# How it was run: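 HepG2 cells transfected via lipofectin with 75 nM antisense oligonucleotide (5-10-5 MOE gapmers, 20-mers, phosphorothioate, 5-methylcytidines), treated ~24 h. Factor 11 mRNA quantified by real-time PCR, normalised to RIBOGREEN total RNA; percent inhibition versus untreated cells.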
# human Factor 11 mRNA [6] = assay: Dose-dependent inhibition of human Factor 11 in HepG2 cells, electroporation 123.46-10,000 nM (Example 31); type: cell-based; settings: for Percent inhibition of Factor 11 mRNA at 123.47 nM / Percent inhibition of Factor 11 mRNA at 370.37 nM / IC50: electroporation; for Percent inhibition of Factor 11 mRNA at 123.47 nM / Percent inhibition of Factor 11 mRNA at 370.37 nM / Percent inhibition of Factor 11 mRNA at 1,111.11 nM / Percent inhibition of Factor 11 mRNA at 3,333.33 nM / Percent inhibition of Factor 11 mRNA at 10,000.0 nM: approx. 16 hours, relative to untreated control cells; for Percent inhibition of Factor 11 mRNA at 1,111.11 nM: electroporation, 1,111.11 nM; for Percent inhibition of Factor 11 mRNA at 3,333.33 nM: electroporation, 3,333.33 nM; for Percent inhibition of Factor 11 mRNA at 10,000.0 nM: electroporation, 10,000.0 nM; for IC50: Factor 11 mRNA expression
# Protocol: Cells were plated at a density of 20,000 cells per well and transfected using electroporation with 123.46 nM, 370.37 nM, 1,111.11 nM, 3,333.33 nM and 10,000 nM concentrations of antisense oligonucleotide, as specified in Table 45. After a treatment period of approximately 16 hours, RNA was isolated from the cells and Factor 11 mRNA levels were measured by quantitative real-time PCR. Human Factor 11 primer probe set RTS 2966 was used to measure mRNA levels. Factor 11 mRNA levels were adjusted according to total RNA content, as measured by RIBOGREEN. Results are presented as percent inhibition of Factor 11, relative to untreated control cells.
# [7] = Viscosity of ISIS antisense oligonucleotides, micro-viscometer at 25 °C (Example 47); type: physicochemical; settings: for Concentration: concentration of the viscosity sample, UV reading at 260 nM at 85° C.; for Viscosity: in water, micro-viscometer at 25° C., at the concentration of the same line
# Protocol: The viscosity of antisense oligonucleotides targeting human Factor 11 was measured with the aim of screening out antisense oligonucleotides which have a viscosity more than 40 cP at a concentration of 165-185 mg/mL.
# ISIS oligonucleotides (32-35 mg) were weighed into a glass vial, 120 μL of water was added and the antisense oligonucleotide was dissolved into solution by heating the vial at 50° C. Part of (75 μL) the pre-heated sample was pipetted to a micro-viscometer (Cambridge). The temperature of the micro-viscometter was set to 25° C. and the viscosity of the sample was measured. Another part (20 μL) of the pre-heated sample was pipetted into 10 mL of water for UV reading at 260 nM at 85° C. (Cary UV instrument).
# human Factor 11 mRNA [8] = assay: Antisense inhibition of human Factor 11 in HepG2 cells, electroporation, 8,000 nM (Example 30); type: cell-based; settings: electroporation, 8,000 nM antisense oligonucleotide
# How it was run: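 HepG2 cells electroporated with 8,000 nM 5-10-5, 5-8-5 or 6-8-6 MOE gapmers (phosphorothioate, 5-methylcytidine), ~24 h. Factor 11 mRNA quantified by qRT-PCR, normalised to RIBOGREEN total RNA. Reported as percent inhibition versus untreated cells.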
Substance,IC50 (human Factor 11 mRNA [1]),percent inhibition of Factor 11 at 0.7 μM (human Factor 11 mRNA [1]),percent inhibition of Factor 11 at 2.2 μM (human Factor 11 mRNA [1]),percent inhibition of Factor 11 at 6.7 μM (human Factor 11 mRNA [1]),percent inhibition of Factor 11 at 20 μM (human Factor 11 mRNA [1]),IC50 (human Factor 11 mRNA [3]),percent inhibition of Factor 11 at 9.375 nM (human Factor 11 mRNA [3]),percent inhibition of Factor 11 at 18.75 nM (human Factor 11 mRNA [3]),percent inhibition of Factor 11 at 37.5 nM (human Factor 11 mRNA [3]),percent inhibition of Factor 11 at 75 nM (human Factor 11 mRNA [3]),percent inhibition of Factor 11 at 9.375 nM (human Factor 11 mRNA [4]),percent inhibition of Factor 11 at 18.75 nM (human Factor 11 mRNA [4]),percent inhibition of Factor 11 at 37.5 nM (human Factor 11 mRNA [4]),percent inhibition of Factor 11 at 75 nM (human Factor 11 mRNA [4]),percent inhibition of Factor 11 at 150 nM (human Factor 11 mRNA [4]),IC50 (human Factor 11 mRNA [4]),% inhibition (human Factor 11 mRNA [5]),Percent inhibition of Factor 11 mRNA at 123.47 nM (human Factor 11 mRNA [6]),Percent inhibition of Factor 11 mRNA at 370.37 nM (human Factor 11 mRNA [6]),"Percent inhibition of Factor 11 mRNA at 1,111.11 nM (human Factor 11 mRNA [6])",other results
413467 (antisense eG*eG*eT*e[5mC]*e[5mC]*dA*d[5mC]*dA*dT*dA*dA*dA*dT*dG*dT*e[5mC]*eT*eT*eT*eG) [compound 413467],4.2 µM,5%,31%,65%,89%,0.02 µM,35%,51%,62%,69%,2%,35%,49%,61%,47%,0.043 µM,91%,,,,"% inhibition (human Factor 11 mRNA [2]; HepG2, lipofectin, ~24 h, gapmers targeted to nucleobases 656 to 704 of SEQ ID NO: 1): 92%"
413476 (antisense eT*eT*eG*eA*eG*dA*dT*dT*d[5mC]*dT*dT*dT*dG*dG*dG*e[5mC]*e[5mC]*eA*eT*eT) [compound 413476],0.9 µM,40%,69%,88%,93%,0.021 µM,24%,58%,62%,77%,26%,44%,64%,73%,82%,0.025 µM,88%,,,,"% inhibition (human Factor 11 mRNA [2]; HepG2 cells, lipofectin, gapmers targeted to nucleobases 1062 to 1091 of SEQ ID NO: 1): 93%"
445498 (antisense eG*eG*eT*eG*e[5mC]*eA*d[5mC]*dA*dG*dT*dT*dT*d[5mC]*dT*eG*eG*e[5mC]*eA*eG*eG) [compound 445498],,,,,,,,,,,,,,,,,,3%,1%,27%,"Percent inhibition of Factor 11 mRNA at 3,333.33 nM (human Factor 11 mRNA [6]): 50%; Percent inhibition of Factor 11 mRNA at 10,000.0 nM (human Factor 11 mRNA [6]): 58%; IC50 (human Factor 11 mRNA [6]): 4.8 µM; Concentration [7]: 157 mg/mL; Viscosity [7]: 21 cP; Percent inhibition of human Factor 11 mRNA levels (human Factor 11 mRNA [8]): 83%"
445504 (antisense eG*eG*e[5mC]*eA*eT*eT*dG*dG*dT*dG*d[5mC]*dA*d[5mC]*dA*eG*eT*eT*eT*e[5mC]*eT) [compound 445504],,,,,,,,,,,,,,,,,,8%,20%,38%,"Percent inhibition of Factor 11 mRNA at 3,333.33 nM (human Factor 11 mRNA [6]): 53%; Percent inhibition of Factor 11 mRNA at 10,000.0 nM (human Factor 11 mRNA [6]): 68%; IC50 (human Factor 11 mRNA [6]): 2.7 µM; Concentration [7]: 139 mg/mL; Viscosity [7]: 20 cP; Percent inhibition of human Factor 11 mRNA levels (human Factor 11 mRNA [8]): 87%"
